Experimental data from ChEMBL document CHEMBL4043290, “Structure-based Design of Pyridone-Aminal eFT508 Targeting Dysregulated Translation by Selective Mitogen-activated Protein Kinase Interacting Kinases 1 and 2 (MNK1/2) Inhibition” (J Med Chem, 2018).
Calls of active or inactive are those of the source. The rule behind the calls is not given here.

Assays:
[1] = target: T1, MAP kinase-interacting serine/threonine-protein kinase 1/2 (Homo sapiens, UniProt Q9HBH9+Q9BUB5); test: Inhibition of MNK1/2 in human TMD8 cells assessed as decrease in eIF4E phosphorylation at Ser209 after 2 hrs by immunoblot method; type: cell-based
[2] = tested on: TMD8; test: Effect on 4E-BP1 expression in human TMD8 cells after 2 hrs by immunoblot method; type: functional, cell-based
[3] = target: Eukaryotic translation initiation factor 4E-binding protein 1 (Homo sapiens) (UniProt Q13541); test: Effect on 4E-BP1 phosphorylation at Thr37/46 in human TMD8 cells at 0.01 to 10 uM after 2 hrs by immunoblot method; type: cell-based
Sequence of Eukaryotic translation initiation factor 4E-binding protein 1 (Homo sapiens) (Q13541 whole entry): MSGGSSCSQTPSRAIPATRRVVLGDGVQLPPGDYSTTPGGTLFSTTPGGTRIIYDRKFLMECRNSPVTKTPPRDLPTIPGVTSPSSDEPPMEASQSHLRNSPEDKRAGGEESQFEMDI

[4] = organism: Homo sapiens; test: Effect on MAPK phosphorylation at Thr202/Tyr204 in human TMD8 cells at 0.01 to 10 uM after 2 hrs by immunoblot method; type: cell-based
[5] = target: T1, MAP kinase-interacting serine/threonine-protein kinase 1/2; test: Inhibition of MNK1/2 in human TMD8 cells assessed as decrease in IL-6 levels after 48 hrs by ELISA; type: cell-based
[6] = target: T1, MAP kinase-interacting serine/threonine-protein kinase 1/2; test: Inhibition of MNK1/2 in human TMD8 cells assessed as decrease in IL-8 levels after 48 hrs by ELISA; type: cell-based
[7] = target: T1, MAP kinase-interacting serine/threonine-protein kinase 1/2; test: Inhibition of MNK1/2 in human TMD8 cells assessed as decrease in TNF-alpha levels after 48 hrs by ELISA; type: cell-based
[8] = target: T1, MAP kinase-interacting serine/threonine-protein kinase 1/2; test: Inhibition of MNK1/2 in human TMD8 cells assessed as decrease in TNF-alpha mRNA half life at 10 uM incubated for 24 hrs by TaqMan assay relative to control; type: cell-based
[9] = target: T1, MAP kinase-interacting serine/threonine-protein kinase 1/2; test: Inhibition of MNK1/2 in human TMD8 cells assessed as decrease in IL-6 mRNA half life at 10 uM incubated for 24 hrs by TaqMan assay relative to control; type: cell-based
[10] = target: T1, MAP kinase-interacting serine/threonine-protein kinase 1/2; test: Inhibition of MNK1/2 in human TMD8 cells assessed as decrease in IL-8 mRNA half life at 10 uM incubated for 24 hrs by TaqMan assay relative to control; type: cell-based
[11] = Metabolic stability in mouse liver microsomes assessed as parent compound remaining at 1 uM after 30 mins by LC-ESI-TOF/MS method; type: ADME, microsome; conditions: read-out: Stability
[12] = Metabolic stability in rat liver microsomes assessed as parent compound remaining at 1 uM after 30 mins by LC-ESI-TOF/MS method; type: ADME, microsome; conditions: read-out: Stability
[13] = Metabolic stability in human liver microsomes assessed as parent compound remaining at 1 uM after 30 mins by LC-ESI-TOF/MS method; type: ADME, microsome; conditions: read-out: Stability
[14] = Oral bioavailability in Balb/c mouse at 10 mg/kg by LC-ESI-TOF/MS or LC-ESI-MS/MS method; type: ADME, organism-based; conditions: in vivo
[15] = Oral bioavailability in Sprague-Dawley rat at 10 mg/kg by LC-ESI-TOF/MS or LC-ESI-MS/MS method; type: ADME, organism-based; conditions: in vivo
[16] = Oral bioavailability in Beagle dog at 3 mg/kg by LC-ESI-TOF/MS or LC-ESI-MS/MS method; type: ADME, organism-based, Canis lupus familiaris; conditions: in vivo
[17] = Oral bioavailability in cynomolgus monkey at 3 mg/kg by LC-ESI-TOF/MS or LC-ESI-MS/MS method; type: ADME, organism-based, Macaca fascicularis; conditions: in vivo
[18] = target: Serine/threonine-protein kinase 17A (Homo sapiens, UniProt Q9UEE5); test: Inhibition of DRAK1 (unknown origin)
Sequence of Serine/threonine-protein kinase 17A (Q9UEE5 whole entry): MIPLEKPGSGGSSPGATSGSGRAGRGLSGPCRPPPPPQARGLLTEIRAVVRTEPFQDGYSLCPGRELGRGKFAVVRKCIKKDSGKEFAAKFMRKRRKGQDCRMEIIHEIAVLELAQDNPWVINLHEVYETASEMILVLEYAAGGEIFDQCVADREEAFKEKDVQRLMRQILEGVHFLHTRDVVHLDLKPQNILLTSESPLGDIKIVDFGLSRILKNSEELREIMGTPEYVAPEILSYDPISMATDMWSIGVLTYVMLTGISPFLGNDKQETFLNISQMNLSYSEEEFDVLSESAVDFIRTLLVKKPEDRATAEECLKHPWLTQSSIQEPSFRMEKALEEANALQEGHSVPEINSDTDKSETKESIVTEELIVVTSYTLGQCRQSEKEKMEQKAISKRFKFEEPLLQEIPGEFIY

[19] = target: Dual specificity protein kinase CLK4 (Homo sapiens, UniProt Q9HAZ1); test: Inhibition of CLK4 (unknown origin)
Sequence of Dual specificity protein kinase CLK4 (Q9HAZ1 whole entry): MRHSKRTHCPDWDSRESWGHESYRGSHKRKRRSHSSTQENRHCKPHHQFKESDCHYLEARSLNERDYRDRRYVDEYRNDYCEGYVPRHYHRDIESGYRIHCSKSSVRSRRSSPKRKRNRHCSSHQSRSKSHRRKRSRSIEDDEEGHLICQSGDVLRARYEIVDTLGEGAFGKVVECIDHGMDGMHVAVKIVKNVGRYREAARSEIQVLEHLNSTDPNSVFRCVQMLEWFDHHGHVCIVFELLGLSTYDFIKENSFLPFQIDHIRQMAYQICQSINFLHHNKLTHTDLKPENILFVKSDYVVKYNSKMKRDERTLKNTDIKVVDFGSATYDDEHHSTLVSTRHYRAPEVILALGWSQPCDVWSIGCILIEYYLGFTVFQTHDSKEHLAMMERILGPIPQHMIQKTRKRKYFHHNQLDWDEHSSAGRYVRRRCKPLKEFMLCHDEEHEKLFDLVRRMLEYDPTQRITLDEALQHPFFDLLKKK

[20] = Antiproliferative activity against human ALCL cells after 72 hrs by CellTiter-Glo assay; type: functional, cell-based
[21] = Antiproliferative activity against human AML cells after 72 hrs by CellTiter-Glo assay; type: functional, cell-based
[22] = Antiproliferative activity against human B-ALL cells after 72 hrs by CellTiter-Glo assay; type: functional, cell-based
[23] = Antiproliferative activity against human B-PLL cells after 72 hrs by CellTiter-Glo assay; type: functional, cell-based
[24] = Antiproliferative activity against human Burkitt lymphoma cells after 72 hrs by CellTiter-Glo assay; type: functional, cell-based; conditions: Burkitt lymphoma cell
[25] = Antiproliferative activity against human CML cells after 72 hrs by CellTiter-Glo assay; type: functional, cell-based
[26] = Antiproliferative activity against human DLBCL cells after 72 hrs by CellTiter-Glo assay; type: functional, cell-based
[27] = Antiproliferative activity against human MCL cells after 72 hrs by CellTiter-Glo assay; type: functional, cell-based
[28] = Antiproliferative activity against human multiple myeloma cells after 72 hrs by CellTiter-Glo assay; type: functional, cell-based; conditions: Multiple myeloma cell
[29] = Antiproliferative activity against human T-ALL cells after 72 hrs by CellTiter-Glo assay; type: functional, cell-based
[30] = tested on: Mus musculus; test: Toxicity in NOD SCID mouse xenografted with human TMD8 cells assessed as body weight loss at 1 to 10 mg/kg, po qd administered for 14 days measured twice a week during compound dosing; type: organism-based; conditions: in vivo, 336 h
[31] = tested on: Mus musculus; test: Toxicity in NOD SCID mouse xenografted with human HBL1 cells assessed as body weight loss at 1 to 10 mg/kg, po qd administered for 12 days measured twice a week during compound dosing; type: organism-based; conditions: in vivo, 288 h
[32] = tested on: Mus musculus; test: Toxicity in NCr nu/nu mouse xenografted with human MDA-MB-231 cells assessed as body weight loss at 1 to 10 mg/kg, po qd administered for 23 days measured twice a week during compound dosing; type: organism-based; conditions: in vivo, 552 h
[33] = tested on: TMD8; test: Antitumor activity against human TMD8 cells xenografted in NOD SCID mouse assessed as tumor growth inhibition at 1 mg/kg, po qd administered for 14 days relative to control; type: functional; conditions: 336 h, read-out: TGI
[34] = Antitumor activity against human HBL1 cells xenografted in NOD SCID mouse assessed as tumor growth inhibition at 1 mg/kg, po qd administered for 12 days relative to control; type: functional; conditions: 288 h, read-out: TGI
[35] = Antitumor activity against human HBL1 cells xenografted in NOD SCID mouse assessed as tumor growth inhibition at 10 mg/kg, po qd administered for 12 days relative to control; type: functional; conditions: 288 h, read-out: TGI
[36] = tested on: TMD8; test: Antitumor activity against human TMD8 cells xenografted in NOD SCID mouse assessed as tumor growth inhibition at 10 mg/kg, po qd administered for 14 days relative to control; type: functional; conditions: 336 h, read-out: TGI
[37] = tested on: MDA-MB-231; test: Antitumor activity against human MDA-MB-231 cells xenografted in NCr nu/nu mouse assessed as tumor growth inhibition at 1 to 10 mg/kg, po qd administered for 23 days relative to control; type: functional
[38] = tested on: MDA-MB-231; test: Growth inhibition of human MDA-MB-231 cells after 72 hrs by CellTiter-Glo assay; type: functional, cell-based
[39] = tested on: Mus musculus; test: In vivo inhibition of MNK1/2 in human TMD8 cells xenografted in NOD SCID mouse assessed as reduction in eIF4E phosphorylation at Ser209 at 1 mg/kg, po qd administered for 14 days measured over 8 hrs post last dose by Western blot method relative to control; type: functional
[40] = tested on: Mus musculus; test: In vivo inhibition of MNK1/2 in human TMD8 cells xenografted in NOD SCID mouse assessed as reduction in eIF4E phosphorylation at Ser209 administered as po qd for 14 days measured over 24 hrs post last dose by Western blot method; type: functional, organism-based
[41] = Therapeutic index, ratio of tumor growth inhibition of human TMD8 cells xenografted in NOD SCID mouse to body weight loss in NOD SCID mouse xenografted with human TMD8 cells
[42] = Therapeutic index, ratio of tumor growth inhibition of human HBL1 cells xenografted in NOD SCID mouse to body weight loss in NOD SCID mouse xenografted with human HBL1 cells
[43] = Therapeutic index, ratio of tumor growth inhibition of human MDA-MB-231 cells xenografted in NCr nu/nu mouse to body weight loss in NCr nu/nu mouse xenografted with human MDA-MB-231 cells
[44] = Protein binding in mouse plasma; type: ADME, cell-free; conditions: read-out: PPB
[45] = Protein binding in rat plasma; type: ADME, cell-free; conditions: read-out: PPB
[46] = Protein binding in dog plasma; type: ADME, cell-free, Canis lupus familiaris; conditions: read-out: PPB
[47] = Protein binding in monkey plasma; type: ADME, cell-free, Macaca mulatta; conditions: rhesus monkey, read-out: PPB
[48] = Protein binding in human plasma; type: ADME, cell-free; conditions: read-out: PPB
[49] = physchem; conditions: octanol/water
[50] = in vitro; conditions: human, Caco-2

SMILES: Cc1cc(Nc2cc(N)ncn2)c(=O)n2c1C(=O)NC21CCCCC1 [TOMIVOSERTIB]
- inhibition [1]: Dose-dependent effect
- Activity [2]: inactive
- Activity [3]: inactive
- Activity [4]: inactive
- inhibition [5]: Dose-dependent effect
- inhibition [6]: Dose-dependent effect
- inhibition [7]: Dose-dependent effect
- fold change (FC) [8]: 1.5 to 2
- fold change (FC) [9]: 1.5 to 2
- fold change (FC) [10]: 1.5 to 2
- remaining at 0.5 h, 1 µM [11]: 90%
- remaining at 0.5 h, 1 µM [12]: 93%
- remaining at 0.5 h, 1 µM [13]: 87%
- bioavailability [14]: 79%
- bioavailability [15]: 85%
- bioavailability [16]: > 100%
- bioavailability [17]: 24%
- IC50 [18]: 0.131 µM
- IC50 [19]: 0.787 µM
- IC50 [20]: > 30 µM
- IC50 [21]: > 30 µM
- IC50 [22]: > 30 µM
- IC50 [23]: > 30 µM
- IC50 [24]: > 30 µM
- IC50 [25]: > 30 µM
- IC50 [26]: < 10 µM
- IC50 [27]: > 30 µM
- IC50 [28]: < 10 µM
- IC50 [29]: > 30 µM
- Activity [30]: Non-Toxic
- Activity [31]: Non-Toxic
- Activity [32]: Non-Toxic
- inhibition in vivo at 1 mg/kg [33]: 71%
- inhibition in vivo at 1 mg/kg [34]: 66%
- inhibition in vivo at 10 mg/kg [35]: 96%
- inhibition in vivo at 10 mg/kg [36]: 75%
- TGI [37]: >100%
- growth inhibition (GI) [38]: inactive
- inhibition in vivo at 1 mg/kg [39]: 80%
- IC90 [40]: 0.376 µM
- IC50 ([40]; Mus musculus, TMD8): 0.0158 µM
- TI [41]: >=10
- TI [42]: >=10
- TI [43]: >=10
- fraction unbound [44]: 0.5
- fraction unbound [45]: 0.5
- fraction unbound [46]: 0.5
- fraction unbound [47]: 0.5
- fraction unbound [48]: 0.5
- logP [49]: 2.7
- Papp A→B at 2 h, 5 µM [50]: 7.1 ×10⁻⁶ cm/s
